Common to all, as to type: functional
The test system of experiment [1] is Bactrocera oleae. Kind of experiment: Insecticidal activity against Bactrocera oleae assessed as insect mortality after 24 hr.
In experiment [2] the test system is Bactrocera oleae. Kind of experiment: Insecticidal activity against Bactrocera oleae assessed as insect mortality at 96 mg Ai/L applied through residual contact on glass surfaces measured after 7 days (reference value: 4.0 +/- 4.0%). As to conditions: 168 h.
In experiment [3] the test system is Bactrocera oleae. Nature of the experiment: Insecticidal activity against Bactrocera oleae assessed as insect mortality at 96 mg Ai/L applied through residual contact on glass surfaces measured after 24 hr (reference value: 2.0 +/- 2.0%).
For experiment [4], the system named is Bactrocera oleae. Kind of experiment: Insecticidal activity against Bactrocera oleae assessed as insect survival lifespan at 96 mg Ai/L applied through oral ingestion (reference value: 79.7 +/- 12.2 days).
The test system of experiment [5] is Bactrocera oleae. Nature of the experiment: Insecticidal activity against Bactrocera oleae assessed as insect mortality at 96 mg Ai/L applied through oral ingestion measured after 15 days (reference value: 2.5 +/- 2.5%). As to conditions: 360 h.
Experiment [6] deals with Bactrocera oleae. Kind of experiment: Insecticidal activity against Bactrocera oleae assessed as insect mortality at 96 mg Ai/L applied through oral ingestion measured after 7 days (reference value: 2.5 +/- 2.5%). The following applies: 168 h.
Experiment [7] deals with Bactrocera oleae. Nature of the experiment: Insecticidal activity against Bactrocera oleae assessed as insect mortality at 96 mg Ai/L applied through oral ingestion measured after 24 hr (reference value: 0%).
Experiment [8] deals with Bactrocera oleae. Nature of the experiment: Insecticidal activity against Bactrocera oleae assessed as insect mortality at 96 mg Ai/L applied through residual contact on glass surfaces measured after 15 days (reference value: 45.8 +/- 16.3%). As to conditions: 360 h.
Experiment [9] relates to Anastrepha suspensa. Nature of the experiment: Insecticidal activity against Anastrepha suspensa assessed as reduction in egg viability administered through diet ingestion measured after 8 to 10 days.
In experiment [10] the test system is Anastrepha suspensa. Nature of the experiment: Insecticidal activity against Anastrepha suspensa assessed as insect mortality administered through diet ingestion measured after 12 to 14 days.
The test system of experiment [11] is Bactrocera oleae. Kind of experiment: Insecticidal activity against Bactrocera oleae assessed as insect mortality at 180 mg Ai/L applied through residual contact on glass surfaces measured after 24 hr (reference value: 2.0 +/- 2.0%).
Experiment [12] deals with Bactrocera oleae. Kind of experiment: Insecticidal activity against Bactrocera oleae assessed as insect survival lifespan at 180 mg Ai/L applied through oral ingestion (reference value: 79.7 +/- 12.2 days).
The test system of experiment [13] is Bactrocera oleae. Kind of experiment: Insecticidal activity against Bactrocera oleae assessed as insect mortality at 180 mg Ai/L applied through oral ingestion measured after 15 days (reference value: 2.5 +/- 2.5%). The following applies: 360 h.
Experiment [14] has as its system Bactrocera oleae. Nature of the experiment: Insecticidal activity against Bactrocera oleae assessed as insect mortality at 180 mg Ai/L applied through oral ingestion measured after 7 days (reference value: 2.5 +/- 2.5%). As to conditions: 168 h.
Experiment [15] has as its system Bactrocera oleae. Nature of the experiment: Insecticidal activity against Bactrocera oleae assessed as insect mortality at 180 mg Ai/L applied through oral ingestion measured after 24 hr (reference value: 0%).
Experiment [16] relates to Bactrocera oleae. Kind of experiment: Insecticidal activity against Bactrocera oleae assessed as insect mortality at 180 mg Ai/L applied through residual contact on glass surfaces measured after 15 days (reference value: 45.8 +/- 16.3%). The following applies: 360 h.
For experiment [17], the system named is Bactrocera oleae. Kind of experiment: Insecticidal activity against Bactrocera oleae assessed as insect mortality at 180 mg Ai/L applied through residual contact on glass surfaces measured after 7 days (reference value: 4.0 +/- 4.0%). The following applies: 168 h.

For `CC[C@H]1CCC[C@H](O[C@H]2CC[C@H](N(C)C)[C@@H](C)O2)[C@@H](C)C(=O)C2=C[C@@H]3[C@@H](C=C(C)[C@@H]4C[C@@H](O[C@@H]5O[C@@H](C)[C@H](OC)[C@@H](OC)[C@H]5OC)C[C@@H]34)[C@@H]2CC(=O)O1.CC[C@H]1CCC[C@H](O[C@H]2CC[C@H](N(C)C)[C@@H](C)O2)[C@@H](C)C(=O)C2=C[C@@H]3[C@@H](C=C[C@@H]4C[C@@H](O[C@@H]5O[C@@H](C)[C@H](OC)[C@@H](OC)[C@H]5OC)C[C@@H]34)[C@@H]2CC(=O)O1`, the mortality (in general, the percentage killed) in the experiment on Bactrocera oleae [1] was found to be 62%.
`COc1cccc(C(=O)NN(C(=O)c2cc(C)cc(C)c2)C(C)(C)C)c1C` [METHOXYFENOZIDE]: the mortality at 96 µg/mL with Bactrocera oleae [2] turned out to be 0%; in the experiment with Bactrocera oleae [3], 0%; with Bactrocera oleae [5], 2.5%; in the experiment with Bactrocera oleae [6], 2.5%; in the experiment on Bactrocera oleae [7], 2.5%; in the experiment on Bactrocera oleae [8], 49.1%. Moreover, the Survival with Bactrocera oleae [4] was determined as 8.6 days.
Take `CC(C)(C)N(NC(=O)c1ccccc1)C(=O)c1ccccc1` [RH-5849]: the Activity in the experiment on Anastrepha suspensa [9] is given as 60%. Also, the mortality in the experiment with Anastrepha suspensa [10] is more than 75%. Also, the mortality at 180 µg/mL in the experiment with Bactrocera oleae [11] amounted to 0%; with Bactrocera oleae [13], 98.2%; with Bactrocera oleae [14], 31.8%; in the experiment with Bactrocera oleae [15], 0%; with Bactrocera oleae [16] it was 100%; with Bactrocera oleae [17], 86%. The Survival with Bactrocera oleae [12] amounted to 8.7 days.
Consider `CCc1ccc(C(=O)NN(C(=O)c2cc(C)cc(C)c2)C(C)(C)C)cc1` [TEBUFENOZIDE], for which the mortality at 180 µg/mL in the experiment with Bactrocera oleae [11] is 0%; with Bactrocera oleae [13], 0%; with Bactrocera oleae [14], 0%; in the experiment on Bactrocera oleae [15], 0%; in the experiment with Bactrocera oleae [16], 58%; in the experiment with Bactrocera oleae [17], 18%. In addition, the Survival in the experiment on Bactrocera oleae [12] turned out to be 66.9 days.

Source of the values: ChEMBL document CHEMBL3045083, “Insect growth regulators as potential insecticides to control olive fruit fly (Bactrocera oleae Rossi): insect toxicity bioassays and molecular docking approach” (2013).
